Results reported in patent US20110319352A1, “Compounds That Bind Oxysterol Binding Proteins, and Methods of Use Thereof” (President and Fellows of Harvard College, priority 2008, published 2011).

Columns and labels:
[1] = target: T1, ORP4-myc-his (Homo sapiens, UniProt Q969R2); test: competitive binding assay, displacement of [3H]-25-OHC from ORP4; conditions: 20 nM [3H]-25-OHC, ORP4-myc-his S100 lysate (HEK-293T), 16 h at 4° C.; read-out: Ki, displacing [3H]-25-OHC from ORP4
T1 construct: made in house; host or cells: HEK-293T (crude S100 lysate, not purified)
T1 sequence (Q969R2 whole entry): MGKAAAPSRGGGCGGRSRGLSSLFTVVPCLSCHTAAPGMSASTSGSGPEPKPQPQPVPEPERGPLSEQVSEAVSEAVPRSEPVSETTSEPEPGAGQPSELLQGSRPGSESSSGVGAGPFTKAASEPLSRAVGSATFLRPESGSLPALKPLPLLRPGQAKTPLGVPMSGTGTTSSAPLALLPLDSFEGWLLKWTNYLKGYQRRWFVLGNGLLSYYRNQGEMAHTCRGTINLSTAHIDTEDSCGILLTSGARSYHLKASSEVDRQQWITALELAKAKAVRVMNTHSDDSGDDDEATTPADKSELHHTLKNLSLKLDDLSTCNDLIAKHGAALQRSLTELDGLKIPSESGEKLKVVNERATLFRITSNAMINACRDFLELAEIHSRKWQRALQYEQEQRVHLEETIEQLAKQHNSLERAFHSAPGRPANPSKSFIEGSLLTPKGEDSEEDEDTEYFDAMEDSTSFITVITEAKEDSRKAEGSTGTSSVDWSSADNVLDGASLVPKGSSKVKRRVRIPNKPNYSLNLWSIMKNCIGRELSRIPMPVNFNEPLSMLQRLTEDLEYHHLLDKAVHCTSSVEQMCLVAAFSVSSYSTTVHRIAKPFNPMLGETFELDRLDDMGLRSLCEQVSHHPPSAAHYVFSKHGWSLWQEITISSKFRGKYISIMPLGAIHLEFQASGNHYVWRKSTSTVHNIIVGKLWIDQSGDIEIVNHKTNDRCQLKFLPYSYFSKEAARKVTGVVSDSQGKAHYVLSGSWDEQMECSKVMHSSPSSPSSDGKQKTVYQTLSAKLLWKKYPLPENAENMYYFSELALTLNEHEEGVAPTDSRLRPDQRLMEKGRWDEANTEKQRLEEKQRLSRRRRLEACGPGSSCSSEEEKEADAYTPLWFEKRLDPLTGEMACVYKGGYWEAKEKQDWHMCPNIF
Description: It has been determined that CRAMs inhibit the binding of radiolabelled 25-OHC ([^3H]-25-OHC) to recombinant OSBP-myc-his and ORP4-myc-his overexpressed in HEK-293T lysate (FIG. 18). It is known that 25-hydroxycholesterol is a high affinity ligand for OSBP and ORP4. Increasing concentrations of CRAMs or OSW-1 analogs were incubated with 20 nM [^3H]-25-OHC in OSBP-myc-his or ORP4-myc-his S100 lysate for 16 h at 4° C. after which unbound sterol was removed using charcoal-dextran and the bound sterol quantified by LCS (liquid scintillation counting).
These experiments provide evidence that CRAMs are ligands of OSBP and ORP4, and in the case of 1 and 2, they are high affinity ligands.
To measure the Kis of CRAMs to OSBP and ORP4 reported above, a previously reported dextran-coated charcoal assay was adapted into a 96-well format. […] To solve these limitations a binding SPA (scintillation proximity assay) for OSBP/ORPs (FIG. 26) will be developed.

[2] = system: OSBP localization in HCT-116 p21+/+ cells; test: OSBP localization by immunofluorescence confocal microscopy; assay type: cell-based; conditions: compound exposure 4 h (OSW-1 1 nM)
Description: FIG. 22 depicts OSBP localization in HCT-116 p21^+/+ cells imaged by immunofluorescence confocal microscopy. Immunofluorescence was used to image OSBP and the trans-Golgi protein p230 after compound exposure for 4 h. […] was labeled with Hoescht 33342.
As another way to investigate how CRAMs may affect OSBP, immunofluorescence (IF) experiments were performed in HCT-116 p21^+/+ cells to determine whether OSBP localization was altered upon treatment with different CRAMs. In untreated cells, OSBP resides largely at ER/cytoplasmic sites with a partial localization at the Golgi (FIG. 22A).
This translocation has been reported many times in the literature as an effect of 25-OHC on OSBP. Treatment of cells with OSW-1 at 1 nM for 4 h caused a dramatic and unprecedented effect on OSBP localization (FIG. 22C). […] In this case p230 has been dispersed (see […]). The translocation of OSBP induced by 2 is distinct from that of 25-OHC. […] They also reveal that the effects on OSBP translocation by 1 and 2 are distinct from 25-OHC.

[3] = system: normal astrocytes; conditions: cited from earlier work
[4] = system: NCI-60; conditions: read-out: GI50, average against the NCI-60; cited from earlier work
[5] = system: HCT-116 p21−/− cells; test: growth inhibition of HCT-116 cells lacking p21 (p21 dependence); assay type: cell-based
Source text: Values are mean±SD of 3 individual experiments each performed in sextublicate or from a single experiment performed in sextublicate. Values for […] were reported in the literature (see Beutler J A, Shoemaker R H, Johnson T, Boyd M R. “Cytotoxic geranyl stilbenes from Macaranga schweinfurthii,” J. Nat. Prod. 1998, 61(12), 1509-12).
[5] […] This shared p21 differential cytotoxicity supports the idea of a common CRAM mechanism of action and likely similar target. […] However, caution has to be exercised in concluding that compounds found to be selective for p21 deficient HCT-116 cells are truly synthetic lethal with p21. It was recently reported that compounds shown to be hypersensitive to HCT-116 p21^−/− cells was actually due to an overexpression of p53 in that cell line. Subsequent siRNA knockdown of p53 eliminated the apparent p21 synthetic lethality.

[6] = system: normal lymphocytes; conditions: cited from earlier work
[7] = system: pERK1/2 in HCT-116 cells; test: Western blot of pERK1/2; assay type: cell-based; conditions: cephalostatin 1 50 nM, 25-OHC 20 μM 12 h
Description: FIG. 21 depicts Western blot and densitometry analysis of pERK1/2 in HCT-116 cells during treatment with 50 nM cephalostatin 1. 25-OHC (20 μM) and okadaic acid (OKA, 10 nM) treatments were for 12 h and 24 h, respectively.
As another test of whether CRAMs perturb a known OSBP function, it was determined whether CRAMs induce changes to the phosphorylation state of ERK1/2. As mentioned above, 25-OHC binds OSBP and causes disruption of a complex between OSBP and the phosphatases HePTP and PP2A. This blocks dephosphorylation of pERK1/2, leading to a persistence of pERK1/2. Opposing this effect is cholesterol, which binds OSBP, inducing formation of the OSBP-HePTP-PP2A ternary complex, causing ERK1/2 dephosphorylation (FIG. 13).

[8] = system: HeLa cells; test: cell viability testing in HeLa cells; assay type: cell-based
Description: Starting with OSW-1, derivatives of OSW-1 that maintained their antiproliferative activity were prepared.

[9] = target: T2, OSBP (Homo sapiens, UniProt P22059); test: affinity chromatography (pulldown) from HeLa cell S-100 lysates; assay type: binding; conditions: HeLa S-100 lysate, competition with soluble 15 μM OSW-1
T2 construct: endogenous in cells; host or cells: HeLa (S-100 cytosol lysate)
T2 sequence (P22059 whole entry): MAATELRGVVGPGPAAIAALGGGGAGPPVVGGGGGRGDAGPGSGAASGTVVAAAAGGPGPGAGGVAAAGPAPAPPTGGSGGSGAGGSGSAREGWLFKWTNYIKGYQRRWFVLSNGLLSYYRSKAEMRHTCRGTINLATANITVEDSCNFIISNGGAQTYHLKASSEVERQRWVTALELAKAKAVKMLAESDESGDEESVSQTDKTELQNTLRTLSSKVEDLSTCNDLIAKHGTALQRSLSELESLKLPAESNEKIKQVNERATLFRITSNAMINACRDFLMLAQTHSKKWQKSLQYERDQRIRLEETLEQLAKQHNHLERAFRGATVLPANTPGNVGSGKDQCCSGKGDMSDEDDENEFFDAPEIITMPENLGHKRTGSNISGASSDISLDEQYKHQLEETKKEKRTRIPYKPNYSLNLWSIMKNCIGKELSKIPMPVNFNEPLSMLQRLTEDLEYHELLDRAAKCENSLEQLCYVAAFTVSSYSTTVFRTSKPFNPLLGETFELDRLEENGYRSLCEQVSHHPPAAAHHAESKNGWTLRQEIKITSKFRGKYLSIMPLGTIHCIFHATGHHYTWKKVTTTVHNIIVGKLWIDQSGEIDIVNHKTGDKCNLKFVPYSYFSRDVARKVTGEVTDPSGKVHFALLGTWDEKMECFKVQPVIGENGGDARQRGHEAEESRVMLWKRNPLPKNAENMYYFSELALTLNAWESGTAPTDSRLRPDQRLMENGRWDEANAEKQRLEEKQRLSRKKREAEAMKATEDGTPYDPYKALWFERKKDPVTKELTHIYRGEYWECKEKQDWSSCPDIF
Description: FIG. 3 depicts the results of a OSW-1 pulldown experiment from HeLa cytosol. Protocol: (1) prepare S-100 HeLa cytosol lysate; (2) preincubate competition lysate with […] OSW-1 for 1 hr; (3) incubate […] of AB-9 and AB-11 Resin (˜16 mmol AB-9/mL resin) with 50 mg protein overnight; and (4) wash resin and elute in sample buffer.
Using active OSW-1 analog 6a, described above, sepharose-linked affinity reagent 6b was prepared, and affinity chromatography experiments using HeLa cell S-100 lysates were performed. […] Upon repeating the affinity chromatography experiment, only band 1, not bands 2 or 3, was enriched. […] [43] Subsequently lanes 1 and 2 were processed in their entirety to identify proteins competed in lane 2 that were not visible on the gel. […] No other CRAMs were tested in affinity chromatography competition experiments, but described below are direct binding studies between CRAMs and OSBP. Since OSBP is the most abundant of the OSBP/ORPs in cells, it was the most abundant OSBP/ORP from the pulldown, and because its biology is the best characterized, further experiments based upon OSBP were performed, as detailed below.

[10] = system: U87-MG; conditions: cited from earlier work

SMILES: COc1ccc(C(=O)O[C@H]2[C@H](O[C@@H]3[C@@H](OC(C)=O)[C@H](O[C@H]4C[C@H]5[C@@H]6CC=C7C[C@@H](O)CC[C@]7(C)[C@H]6CC[C@]5(C)[C@@]4(O)[C@H](C)C(=O)CCC(C)C)OC[C@@H]3O)OC[C@@H](O)[C@@H]2O)cc1 [OSW-1]
- Ki [1]: 32 nM
- effect on OSBP localization [2]: OSBP to shift from the cytoplasm to a tight cis/medial Golgi site
- GI50 [3]: 7.13 nM
- GI50 [4]: 0.78 nM
- differential GI50, HCT-116 p21−/− versus p21+/+ ([5]; 48 h (FIG. 14)): 72 fold
- dependence of growth inhibition on p21 status ([5]; HCT-116 p21−/− versus p21+/+): selectively growth inhibitory to p21-deficient cells
- GI50 [6]: 1.73 nM
- pERK1/2 levels [7]: increase in pERK1/2 comparable to cephalostatin 1
- GI50 [8]: 0.23 nM
- binding of OSBP in pulldown / competition [9]: binds OSBP
- selectivity, malignant brain tumor cells versus normal astrocytes ([10]; U87-MG versus normal astrocytes): 150 fold
- GI50 [10]: 0.047 nM
